Data taken from patent US9278922B2 (ABBVIE INC., priority 2009, dated 2016).

The compounds below were run on HCV 1b-Con-1 replicon (assay: HCV 1b-Con-1 replicon assay (luciferase reporter gene, HuH-7 cells)). Conditions: Hepatitis C virus, Huh-7, luciferase reporter gene activity in the replicon, in the presence of 5% FBS.
Type: cell-based, Hepatitis C virus (HCV) genotype 1b-Con1

| SMILES | EC50 [nM] |
| --- | --- |
| O=C(Nc1ccc(CN(Cc2ccc(NC(=O)[C@@H]3CCCN3C(=O)C(c3ccccc3)N3CC[C@@H](F)C3)cc2)c2ccc(F)cc2)cc1)[C@@H]1CCCN1C(=O)C(c1ccccc1)N1CC[C@@H](F)C1 (single isomer, unassigned) [Example 118] | 1 to 10 |
| O=C(Nc1ccc(CN(Cc2ccc(NC(=O)[C@@H]3CCCN3C(=O)C(c3ccccc3)N3CC[C@H](F)C3)cc2)c2ccc(F)cc2)cc1)[C@@H]1CCCN1C(=O)C(c1ccccc1)N1CC[C@H](F)C1 (single isomer, unassigned) [Example 120] | < 1 |
| O=C(Nc1ccc(CN(Cc2ccc(NC(=O)[C@@H]3CCCN3C(=O)C(c3ccccc3)N3CCCC3=O)cc2)c2ccc(F)cc2)cc1)[C@@H]1CCCN1C(=O)C(c1ccccc1)N1CCCC1=O (single isomer, unassigned) [Example 129, (2S ,2′S)-N,N′-{[(4-fluorophenyl)imino]bis(methanediylbenzene-4,1-diyl)}bis{1-[(2-oxopyrrolidin-1-yl)(phenyl)acetyl]pyrrolidine-2-carboxamide}] | 1 to 10 |
| O=C(Nc1ccc(CN(Cc2ccc(NC(=O)[C@@H]3CCCN3C(=O)C(c3ccccc3)N3CCC(F)(F)CC3)cc2)c2ccc(F)cc2)cc1)[C@@H]1CCCN1C(=O)C(c1ccccc1)N1CCC(F)(F)CC1 (single isomer, unassigned) [Example 139] | 1 to 10 |
| COC(=O)N[C@H](C(=O)N1CCC[C@H]1C(=O)Nc1ccc(CN(Cc2ccc(NC(=O)[C@@H]3CCCN3C(=O)[C@@H](NC(=O)OC)C(C)C)cc2)c2ccccc2)cc1)C(C)C [Example 1] | < 1 |
| CN(C)[C@@H](C(=O)N1CCC[C@H]1C(=O)Nc1ccc(CN(Cc2ccc(NC(=O)[C@@H]3CCCN3C(=O)[C@@H](c3ccccc3)N(C)C)cc2)c2ccccc2)cc1)c1ccccc1 [Example 2] | < 1 |
| COC(=O)N[C@@H](C(=O)N1CCC[C@H]1C(=O)Nc1ccc(CN(Cc2ccc(NC(=O)[C@@H]3CCCN3C(=O)[C@H](NC(=O)OC)c3ccccc3)cc2)c2ccccc2)cc1)c1ccccc1 [Example 3] | < 1 |
| O=C(Nc1ccc(CN(Cc2ccc(NC(=O)[C@@H]3CCCN3C(=O)OCc3ccccc3)cc2)c2ccccc2)cc1)C1CCCN1C(=O)OCc1ccccc1 (stereo partly drawn) [Example 4, (2S,2′S)-benzyl 2,2′-(4,4′-(phenylazanediyl)bis(methylene)bis(4,1-phenylene)bis(azanediyl))bis(oxomethylene)dipyrrolidine-1-carboxylate] | 10 to 100 |
| COC(=O)N[C@@H](C)C(=O)N1CCC[C@H]1C(=O)Nc1ccc(CN(Cc2ccc(NC(=O)[C@@H]3CCCN3C(=O)[C@H](C)NC(=O)OC)cc2)c2ccccc2)cc1 [Example 8, Dimethyl (2S,2′S)-1,1′-((2S,2′S)-2,2′-(4,4′-(phenylazanediyl)bis(methylene)bis(4,1-phenylene)bis(azanediyl))bis(oxomethylene)bis(pyrrolidine-2,1-diyl))bis(1-oxopropane-2,1-diyl)dicarbamate] | 1 to 10 |
| CC[C@H](C)[C@H](NC(=O)OC)C(=O)N1CCC[C@H]1C(=O)Nc1ccc(CN(Cc2ccc(NC(=O)[C@@H]3CCCN3C(=O)[C@@H](NC(=O)OC)[C@@H](C)CC)cc2)c2ccccc2)cc1 [Example 9] | < 1 |
| COC(=O)N[C@H](C(=O)N1CCC[C@H]1C(=O)Nc1ccc(CN(Cc2ccc(NC(=O)[C@@H]3CCCN3C(=O)[C@@H](c3ccccc3)N(C)C)cc2)c2ccccc2)cc1)C(C)(C)C [Example 10, Methyl (S)-1-((S)-2-(4-(((4-((S)-1-((R)-2-(dimethylamino)-2-phenylacetyl)pyrrolidine-2-carboxamido)benzyl)(phenyl)amino)methyl)phenylcarbamoyl)pyrrolidin-1-yl)-3,3-dimethyl-1-oxobutan-2-ylcarbamate] | < 1 |
| COC(=O)N[C@H](C(=O)N1CCC[C@H]1C(=O)Nc1ccc(CN(Cc2ccc(NC(=O)[C@@H]3CCCN3C(=O)[C@@H](NC(=O)OC)c3ccccc3)cc2)c2ccccc2)cc1)c1ccccc1 [Example 11, Dimethyl (1S,1′S)-2,2′-((2S,2′S)-2,2′-(4,4′-(phenylazanediyl)bis(methylene)bis(4,1-phenylene)bis(azanediyl))bis(oxomethylene)bis(pyrrolidine-2,1-diyl))bis(2-oxo-1-phenylethane-2,1-diyl)dicarbamate] | < 1 |
| CCN(CC)[C@@H](C(=O)N1CCC[C@H]1C(=O)Nc1ccc(CN(Cc2ccc(NC(=O)[C@@H]3CCCN3C(=O)[C@@H](NC(=O)OC)C(C)(C)C)cc2)c2ccccc2)cc1)c1ccccc1 [Example 12, Methyl (S)-1-((S)-2-(4-(((4-((S)-1-((R)-2-(diethylamino)-2-phenylacetyl)pyrrolidine-2-carboxamido)benzyl)(phenyl)amino)methyl)phenylcarbamoyl)pyrrolidin-1-yl)-3,3-dimethyl-1-oxobutan-2-ylcarbamate] | < 1 |
| COC(=O)N[C@H](C(=O)N1CCC[C@H]1C(=O)Nc1ccc(CN(Cc2ccc(NC(=O)[C@@H]3CCCN3C(=O)[C@@H](NC(=O)OC)C(C)(C)C)cc2)c2ccc(F)cc2)cc1)C(C)(C)C [Example 13, Dimethyl (2S,2′S)-1,1′-((2S,2′S)-2,2′-(4,4′-(4-fluorophenylazanediyl)bis(methylene)bis(4,1-phenylene)bis(azanediyl))bis(oxomethylene)bis(pyrrolidine-2,1-diyl))bis(3,3-dimethyl-1-oxobutane-2,1-diyl)dicarbamate] | < 1 |
| COC(=O)N[C@H](C(=O)N1CCC[C@H]1C(=O)Nc1ccc(CN(Cc2ccc(NC(=O)[C@@H]3CCCN3C(=O)[C@@H](NC(=O)OC)C(C)C)cc2)c2ccc(F)cc2)cc1)C(C)C [Example 14] | < 1 |
| COC(=O)N[C@@H](C)C(=O)N1CCC[C@H]1C(=O)Nc1ccc(CN(Cc2ccc(NC(=O)[C@@H]3CCCN3C(=O)[C@H](C)NC(=O)OC)cc2)c2ccc(F)cc2)cc1 [Example 15] | 1 to 10 |
| COC(=O)N[C@H](C)C(=O)N1CCC[C@H]1C(=O)Nc1ccc(CN(Cc2ccc(NC(=O)[C@@H]3CCCN3C(=O)[C@@H](C)NC(=O)OC)cc2)c2ccc(F)cc2)cc1 [Example 16] | 10 to 100 |
| COC(=O)N[C@H](C(=O)N1CCC[C@H]1c1nc2cc(CN(Cc3ccc4[nH]c([C@@H]5CCCN5C(=O)[C@@H](NC(=O)OC)C(C)C)nc4c3)c3ccccc3)ccc2[nH]1)C(C)C [Example 17, Dimethyl (2S,2′S)-1,1′-((2S,2′S)-2,2′-(5,5′-(phenylazanediyl)bis(methylene)bis(1H-benzo[d]imidazole-5,2-diyl))bis(pyrrolidine-2,1-diyl))bis(3-methyl-1-oxobutane-2,1-diyl)dicarbamate] | < 1 |
| CN(C)[C@@H](C(=O)N1CCC[C@H]1c1nc2cc(CN(Cc3ccc4[nH]c([C@@H]5CCCN5C(=O)[C@@H](c5ccccc5)N(C)C)nc4c3)c3ccccc3)ccc2[nH]1)c1ccccc1 [Example 18, (2R,2′R)-1,1′-((2S,2′S)-2,2′-(5,5′-(phenylazanediyl)bis(methylene)bis(1H-benzo[d]imidazole-5,2-diyl))bis(pyrrolidine-2,1-diyl))bis(2-(dimethylamino)-2-phenylethanone)] | < 1 |
| COC(=O)N[C@H](C(=O)N1CCC[C@H]1C(=O)Nc1ccc(CN(Cc2ccc(NC(=O)[C@@H]3CCCN3C(=O)[C@@H](NC(=O)OC)C(C)(C)C)cc2)c2nccs2)cc1)C(C)(C)C [Example 19] | 10 to 100 |
| COC(=O)N[C@H](C(=O)N1CCC[C@H]1C(=O)Nc1ccc(CN(Cc2ccc3[nH]c([C@@H]4CCCN4C(=O)[C@@H](NC(=O)OC)C(C)C)nc3c2)c2ccccc2)cc1)C(C)C [Example 20] | < 1 |
